Test results: ChEMBL document CHEMBL4811216, “Chemotherapy for human schistosomiasis: how far have we come? What's new? Where do we go from here?” (RSC Med Chem, 2020)

What was measured:
Schistosoma mansoni [1] = experiment: Antischistosomal activity against Schistosoma mansoni BH assessed as changes in motor activity at 3.125 to 25 ug/ml measured up to 120 hrs by inverted microscopic method relative to control; assay type: functional; conditions: dose 3.125-25 µg/ml; time hrs <=120; at 3.125 to 25 µg/mL
Schistosoma mansoni [2] = experiment: Antischistosomal activity against Schistosoma mansoni BH infected in Balb/C mouse assessed as reduction in worm burden at 100 mg/kg, po measured after 2 weeks by Kato-Katz quantitative method; assay type: functional; conditions: Schistosoma mansoni, BH, po, 336 h
Schistosoma mansoni [3] = experiment: Antischistosomal activity against adult Schistosoma mansoni BH infected in Balb/C mouse assessed as reduction in worm burden at 100 mg/kg, po measured after 2 weeks; assay type: functional; design: scale not given: the % may be the effect or the level left
Schistosoma mansoni [4] = experiment: Antischistosomal activity against juvenile Schistosoma mansoni BH infected in Balb/C mouse assessed as reduction in worm burden at 100 mg/kg, po measured after 2 weeks; assay type: functional; design: scale not given: the % may be the effect or the level left
Schistosoma mansoni [5] = experiment: Antischistosomal activity against Schistosoma mansoni BH assessed as tegument damage at 3.125 to 25 ug/ml measured up to 120 hrs by inverted microscopic method relative to control; assay type: functional; conditions: dose 3.125-25 µg/ml; time hrs <=120; at 3.125 to 25 µg/mL
Schistosoma mansoni [6] = experiment: Antischistosomal activity against adult Schistosoma mansoni BH assessed as reduction in motor activity at 150 to 200 ug/ml incubated for 120 hrs measured every 24 hrs by light microscopy relative to control; assay type: functional; design: scale not given: the % may be the effect or the level left; conditions: dose 150-200 µg/ml, at 150 to 200 µg/mL
Schistosoma mansoni [7] = experiment: Antischistosomal activity against Schistosoma mansoni Liberian NTS at 10 uM measured after 24 hrs relative to control; assay type: functional
Schistosoma mansoni [8] = experiment: Antischistosomal activity against adult Schistosoma mansoni BH assessed as worm death at 150 to 200 ug/ml incubated for 120 hrs measured every 24 hrs by light microscopy relative to control; assay type: functional; conditions: dose 150-200 µg/ml, at 150 to 200 µg/mL
Schistosoma mansoni [9] = experiment: Antischistosomal activity against juvenile Schistosoma mansoni BH infected in Balb/C mouse assessed as reduction in worm burden at 40 mg/kg, po administered at 21 days post infection and measured at 15 days post treatment relative to control; assay type: functional; design: scale not given: the % may be the effect or the level left; conditions: time 15 day
Schistosoma mansoni [10] = experiment: Antischistosomal activity against adult Schistosoma mansoni BH assessed as tegument damage at 150 to 200 ug/ml incubated for 120 hrs measured every 24 hrs by light microscopy relative to control; assay type: functional; conditions: dose 150-200 µg/ml, at 150 to 200 µg/mL
Schistosoma mansoni [11] = experiment: Antischistosomal activity against adult Schistosoma mansoni BH infected in Balb/C mouse assessed as reduction in worm burden at 40 mg/kg, po administered at 45 days post infection and measured at 15 days post treatment relative to control; assay type: functional; design: scale not given: the % may be the effect or the level left; conditions: time 15 day
Schistosoma mansoni [12] = experiment: Antischistosomal activity against adult Schistosoma mansoni BH infected in Balb/C mouse assessed as reduction in number of eggs at 40 mg/kg, po administered at 45 days post infection and measured at 15 days post treatment relative to control; assay type: functional; design: scale not given: the % may be the effect or the level left; conditions: time 15 day
Schistosoma mansoni [13] = experiment: Antischistosomal activity against Schistosoma mansoni miracidia assessed as worm death incubated for 1 to 2 hrs by microscopic method relative to control; assay type: functional; conditions: time 1-2 hrs
Schistosoma mansoni [14] = experiment: Antischistosomal activity against Schistosoma mansoni cercariae assessed as worm death incubated for 2 hrs by microscopic method relative to control; assay type: functional
Schistosoma mansoni [15] = experiment: Schistosomicidal-activity against Schistosoma mansoni LE assessed as reduction in motor activity at 50 uM measured after 120 hrs relative to control; assay type: functional; design: scale not given: the % may be the effect or the level left
Schistosoma mansoni [16] = experiment: Schistosomicidal-activity against Schistosoma mansoni LE assessed as seperation of worm couples at 25 uM measured within 120 hrs relative to control; assay type: functional
Schistosoma mansoni [17] = experiment: Antischistosomal activity against Schistosoma mansoni assessed as reduction in worm motor activity at <=100 uM measured within 72 hrs relative to control; assay type: functional; design: scale not given: the % may be the effect or the level left; conditions: dose microM <=100
Schistosoma mansoni [18] = experiment: Antischistosomal activity against Schistosoma mansoni assessed as worm death at <= 100 uM measured within 72 hrs relative to control; assay type: functional; conditions: dose microM <=100
Schistosoma mansoni [19] = experiment: Antischistosomal activity against Schistosoma mansoni incubated for 24 hrs by MTT assay; assay type: functional, organism-based
Schistosoma mansoni [20] = experiment: Antischistosomal activity against Schistosoma mansoni assessed as tegument damage at <=100 uM measured within 72 hrs relative to control; assay type: functional; conditions: dose microM <=100
Schistosoma mansoni [21] = experiment: Antischistosomal activity against larva Schistosoma mansoni infected in ICR mouse assessed as reduction in worm burden at 8 mg/kg, ip administered for 5 consecutive days; assay type: functional; design: scale not given: the % may be the effect or the level left
Schistosoma japonicum [22] = experiment: Antischistosomal activity against adult Schistosoma japonicum infected in ICR mouse assessed as reduction in worm burden at 8 mg/kg, ip administered for 5 consecutive days; assay type: functional; design: scale not given: the % may be the effect or the level left
Schistosoma mansoni [23] = experiment: Antischistosomal activity against adult Schistosoma mansoni infected in ICR mouse assessed as reduction in worm burden at 8 mg/kg, ip administered for 5 consecutive days; assay type: functional; design: scale not given: the % may be the effect or the level left
Schistosoma mansoni [24] = experiment: Antischistosomal activity against juvenile Schistosoma mansoni infected in ICR mouse assessed as reduction in worm burden at 8 mg/kg, ip administered for 5 consecutive days; assay type: functional; design: scale not given: the % may be the effect or the level left
Schistosoma japonicum [25] = experiment: Antischistosomal activity against juvenile Schistosoma japonicum infected in ICR mouse assessed as reduction in worm burden at 8 mg/kg, ip administered for 5 consecutive days; assay type: functional; design: scale not given: the % may be the effect or the level left
Schistosoma japonicum [26] = experiment: Antischistosomal activity against larva Schistosoma japonicum infected in ICR mouse assessed as reduction in worm burden at 8 mg/kg, ip administered for 5 consecutive days; assay type: functional; design: scale not given: the % may be the effect or the level left

Cn1cncc1C[C@H]1CCC(=O)[C@H]1C(O)c1ccccc1 (stereo partly specified)
Activity (Schistosoma mansoni [1]): 100%
mortality at 100 mg/kg (Schistosoma mansoni [2]): 64.1%
Activity (Schistosoma mansoni [3]): 60.6%
Activity (Schistosoma mansoni [4]): 58%
Activity (Schistosoma mansoni [5]): 100%

Cn1cnc(C[C@H]2CCC(=O)[C@@H]2[C@H](O)c2ccccc2)c1
Activity (Schistosoma mansoni [6]): 100%
Activity (Schistosoma mansoni [7]): 100%
mortality (Schistosoma mansoni [8]): 100%
Activity (Schistosoma mansoni [9]): 50.2%
Activity (Schistosoma mansoni [10]): 100%
Activity (Schistosoma mansoni [11]): 70%
Activity (Schistosoma mansoni [12]): 80%

CC1=CC(=O)CC(C)(C)C1(O)/C=C/C(C)O[C@@H]1O[C@H](COC(=O)c2cc(O)c(O)c(O)c2)[C@@H](O)[C@H](O)[C@H]1O (stereo partly specified)
mortality (Schistosoma mansoni [13]): 99.7%
mortality (Schistosoma mansoni [14]): 41%

COc1cc([C@@H]2OC(=O)[C@@H]3[C@H]2C(=O)O[C@H]3c2ccc(O)c(OC)c2)ccc1O
Activity (Schistosoma mansoni [15]): 25%
Activity (Schistosoma mansoni [16]): 25%

C/C=C/c1cc(OC)c2c(c1)C(C)C(c1ccc(O)c(OC)c1)O2 (stereo unspecified) [DEHRODIISOEUGENOL]
Activity (Schistosoma mansoni [17]): 100%
mortality (Schistosoma mansoni [18]): 100%
IC50 (Schistosoma mansoni [19]): 53.5 µM
Activity (Schistosoma mansoni [20]): 25%

C[C@@H]1O[C@@H](O[C@@H]2C[C@@H](O[C@@H]3O[C@H](CO)[C@@H](O)[C@H](O)[C@H]3O)CO[C@H]2O[C@H]2CC[C@]3(C)[C@H]4CC=C5[C@@H]6CC(C)(C)CC[C@]6(C(=O)O)CC[C@@]5(C)[C@]4(C)CC[C@H]3C2(C)C)[C@H](O)[C@H](O)[C@H]1O
Activity (Schistosoma mansoni [21]): 88.6%
Activity (Schistosoma japonicum [22]): 53.2%
Activity (Schistosoma mansoni [23]): 70.6%
Activity (Schistosoma mansoni [24]): 68.3%
Activity (Schistosoma japonicum [25]): 59.9%
Activity (Schistosoma japonicum [26]): 90%
